Data on eight compounds can be found in US10011628B2, “Multivalent sialic acid derivatives” (priority 2013, dated 2018).

Where two headings read alike, the source gives them in different places.

For orientation: Kd means the constant that tells how readily two partners part at equilibrium.

The subject of assay [1] is HAdV-37 virions (attachment to HCE cells). Kind of assay: Cell-binding assay: attachment of 35S-labeled HAdV-37 virions to HCE cells. The assay is classed as cell-based. The following applies: read-out: IC50, preventing attachment of HAdV-37 virions to HCE cells. The protocol:
In order to investigate the efficiency of the newly synthesized compounds (ME0385, ME0386, ME0407, ME0408, ME0461, and ME0462) to prevent the attachment of HAdV-37 virions to HCE cells, cell-binding assays based on ^35S-labeled virions were performed. Based on previous studies ME0322, sialic acid and GD1a glycan were used as reference compounds (Nilsson et al N. Nat. Med. 2011, 17, 105 and Spjut et al Angew. Chem. Int. Ed. 2011, 50, 6519). The assays were carried out (see below for further details) essentially as previously described (Arnberg et al J. Virol. 2000, 74, 42 and Arnberg et al J. Virol. 2000, 74, 7691).
In brief, ^35S-labeled HAdV-37 virions were pre-incubated with or without the trivalent sialic acid derivatives, GD1a glycan and sialic acid at various concentrations. The mixtures were incubated with HCE cells and unbound virions were then washed away. Finally, the cell-associated radioactivity was counted by using a scintillation counter.
S-labeled HAdV-37 virions (5×10^8/well) were pre-incubated in binding buffer (50 μL; BB: Dulbecco's modified eagle's medium containing 1% BSA (Roche AB, Stockholm, Sweden) and HEPES (20 mM, EuroClone, Milan, Italy), pH 7.5) with or without the trivalent sialic acid derivatives, GD1a glycan or sialic acid at various concentrations (cf. FIG. 1a) in a 96-well microplate at +4° C. for 1 h. These mixtures were then added to HCE cells prepelleted (1×10^5/well) in a 96-well microplate. After re-suspension, the mixtures were incubated at +4° C. for 1 h. Finally, unbound virions were washed away with BB and the cell-associated radioactivity was counted by using a Wallac 1409 scintillation counter.

The subject of assay [2] is HAdV-37 virions (infection of HCE cells). Kind of assay: Infection assay: infection of HCE cells by HAdV-37 virions (immunofluorescence). The class given is cell-based. Conditions: for IC50: Human adenovirus sp., HCE, 44 h of infection, immunofluorescence, read-out: IC50, preventing infection of HCE cells by HAdV-37 virions; for prevention of infection of HCE cells by HAdV-37 virions compared with ME0322: in words. The protocol:
In order to confirm the results from the cell-binding assays and to further evaluate our set of compounds, infection experiments were performed (FIGS. 1b, 3a and 3b). The assays were carried out (see below for further details) essentially as previously described ((Arnberg et al. J. Virol. 2000, 74, 42 and Arnberg et al. J. Virol. 2000, 74, 7691)).
In brief, unlabeled virions were pre-incubated with or without the trivalent sialic acid derivatives, GD1a glycan or sialic acid at various concentrations. These mixtures were then added to HCE cells and incubated at +4° C. Unbound virions were washed away, the resulting mixtures were incubated at +37° C. and a synchronized infection—all virions enter the cells simultaneously—was then obtained. After 44 h of infection, the cells were rinsed, fixed, incubated with rabbit polyclonal anti-HAdV-37 antibodies prior to being washed and stained. Finally, the cells were washed and examined by immunofluorescence microscopy.
7×10^7 non-labeled virions/well in 48-well plates were pre-incubated in serum free growth media (2004), with or without the trivalent sialic acid derivatives, GD1a glycan or sialic acid at various concentrations (cf. FIG. 2B) at +4° C. After 1 h, the mixtures were transferred to new 48-well plates containing 1×10^5 adherent HCE cells/well and incubated at +4° C. After 1 h, unbound virions were washed away with serum free growth media and the resulting mixtures were incubated with growth media containing 1% fetal bovine serum (FBS) at +37° C. After 44 h of infection, the cells were rinsed in PBS, fixed with cold (−20° C.) 99% methanol for 10 min and incubated with rabbit polyclonal anti-HAdV-37 antibodies diluted 1:200 in PBS (pH 7.4) at room temperature. After 1 h, the cells were washed in PBS and stained with FITC-labeled swine anti-rabbit IgG antibodies (Dako-cytomation, Glostrup, Denmark) diluted 1:100 in PBS for 1 h at room temperature. Finally, the cells were washed in PBS and examined in an immunofluorescence microscope (Axiovert 25, Carl Zeiss, Germany; 10× magnification).

The target of assay [3] is HAdV-37 fiber knob (Human adenovirus D37, UniProt Q64823). The assay can be described thus: Surface plasmon resonance (SPR), immobilized HAdV-37 fiber knobs. The class given is binding, human adenovirus HAdV-37. Conditions: for binding mode with HAdV-37 fiber knob: SPR. The protocol:
Finally, ME0385, ME0386 and ME0322 were investigated in surface plasmon resonance (SPR) experiments and their respective binding affinities (Kds) for immobilized HAdV-37 fiber knobs were determined (see below for further details). […] It is also worth noting the influence of the HAdV-37 fiber knob construct on the Kd values.
The kinetic measurements were performed using a surface plasmon resonance BIAcore T100 instrument. HAdV-37 knob proteins were covalently coupled to a CMS sensorchip using the amine coupling kit (GE Healthcare), to a concentration of 14-15 ng/mm^2 (˜15000RU). Binding of the trivalent sialic acid conjugates ME0322, ME0385 and ME0386 to the immobilized knob was performed in 10 mM HEPES, 0.15 M NaCl and 0.05% P20 pH 7.4 (1×HBS-EP+, GE Healthcare). The concentrations of trivalent sialic acid used were 400, 200, 100, 50 (twice), 25, 12.5 (twice), 6.25, 3.125, 1.56 and 0.78 μM. The binding affinities (Kds) were calculated using Biacore T100 evaluation software.

Assay [4] relates to HAdV-37 virions (infection of HCE cells). The following applies: cited from earlier work.
The subject of assay [5] is HAdV-37 virions (attachment to HCE cells). The following applies: reported in the art (background), cited from earlier work.
Where [6] appears, read: 35S-labeled virions pre-incubated with compound, +4° C., HCE cells.

In the case of `CCC(=O)N[C@H]1[C@H]([C@H](O)[C@H](O)CO)O[C@@](OCCCn2cc(CN(Cc3cn(CCCO[C@]4(C(=O)O)C[C@H](O)[C@@H](NC(=O)CC)[C@H]([C@H](O)[C@H](O)CO)O4)nn3)Cc3cn(CCCO[C@]4(C(=O)O)C[C@H](O)[C@@H](NC(=O)CC)[C@H]([C@H](O)[C@H](O)CO)O4)nn3)nn2)(C(=O)O)C[C@@H]1O` [ME0407], the IC50 in assay [1] (setting [6]) is 23.4 µM.
For `CC(=O)N[C@@H]1C(O)C[C@](OCCCn2cc(CN(Cc3cn(CCCO[C@@]4(C(=O)O)CC(O)[C@H](NC(C)=O)C(C(O)C(O)CO)O4)nn3)Cc3cn(CCCO[C@]4(C(=O)O)CC(O)[C@@H](NC(C)=O)C(C(O)C(O)CO)O4)nn3)nn2)(C(=O)O)OC1C(O)C(O)CO` (stereo partly drawn) [ME0386, Tris ((1-(2-O-(5-N-acetamido-3,5-dideoxy-D-glycero-α-D-galacto-2-nonylopyranosylonic acid))-3-oxopropyl-1H-1,2,3-triazol-4-yl)methyl)amine], the IC50 in assay [1] (Human adenovirus sp., HCE) is 0.04 µM; in assay [2] it was 0.118 µM. The compound also showed a Kd in assay [3] of 69 µM. Also, the “binding mode with HAdV-37 fiber knob” value in assay [3] is “one-to-one binding mode”.
As to `CC(=O)N[C@@H]1C(O)C[C@](OCc2cn(CCN(CCn3cc(CO[C@]4(C(=O)O)CC(O)[C@@H](NC(C)=O)C(C(O)C(O)CO)O4)nn3)CCn3cc(CO[C@]4(C(=O)O)CC(O)[C@@H](NC(C)=O)C(CO)(C(O)CO)O4)nn3)nn2)(C(=O)O)OC1C(O)C(O)CO` (stereo partly drawn) [ME0462, Tris ((4-(2-O-(5-N-acetamido-3,5-dideoxy-D-glycero-α-D-galacto-2-nonulopyranosylonic acid))-2-oxomethyl-1H-1,2,3-triazol-1-yl)ethyl)amine], the IC50 in assay [1] (Human adenovirus sp., HCE) came out at 0.0014 µM; in assay [2] it was 0.0021 µM. Moreover, the “prevention of infection of HCE cells by HAdV-37 virions compared with ME0322” value in assay [2] is listed as “more efficiently than ME0322”. In addition, the affinity in assay [3], expressed as Kd, was 9.5 µM.
As to `CC(=O)NC1C(O)CC(OCCn2cc(CN(Cc3cn(CCOC4(C(=O)O)CC(O)C(NC(C)=O)C(C(O)C(O)CO)O4)nn3)Cc3cn(CCOC4(C(=O)O)CC(O)C(NC(C)=O)C(C(O)C(O)CO)O4)nn3)nn2)(C(=O)O)OC1C(O)C(O)CO` [ME0385, Tris ((1-(2-O-(5-N-acetamido-3,5-dideoxy-D-glycero-α-D-galacto-2-nonylopyranosylonic acid))-2-oxoethyl-1H-1,2,3-triazol-4-yl)methyl)amine], the IC50 stood at 0.107 µM in assay [1] (Human adenovirus sp., HCE) and 0.166 µM in assay [2]. In assay [3], this compound registered an equilibrium dissociation constant (Kd) of 76 µM. Also, in assay [3], the “binding mode with HAdV-37 fiber knob” value is “one-to-one binding mode”.
For “Tris ((1-(2-O-(5-N-propanoylamido-3,5-dideoxy-D-glycero-α-D-galacto-2-nonylopyranosylonic acid))-2-oxoethyl-1H-1,2,3-triazol-4-yl)methyl)amine [ME0408]”, the IC50 in assay [1] (setting [6]) came out at 4.5 µM.
Take `CC(=O)N[C@H]1[C@H]([C@H](O)[C@H](O)CO)OC(O)(C(=O)O)C[C@@H]1O` (some centres unmarked) [sialic acid]: the IC50 in assay [1] (Human adenovirus sp., HCE) was 1200 µM.
With “Tris ((4-(2-O-(5-N-acetamido-3,5-dideoxy-D-glycero-α-D-galacto-2-nonulopyranosylonic acid))-2-oxoethyl-1H-1,2,3-triazol-1-yl)ethyl)amine [ME0461]”, the IC50 in assay [1] (setting [6]) amounted to 0.376 µM. For the same compound, in assay [2], the “prevention of infection of HCE cells by HAdV-37 virions compared with ME0322” value is “more efficiently than ME0322”.
For the compound `CC(=O)NC1C(O)CC(OCCCCCNc2c(NCCN(CCNc3c(NCCCCCOC4(C(=O)O)CC(O)C(NC(C)=O)C(C(O)C(O)CO)O4)c(=O)c3=O)CCNc3c(NCCCCCOC4(C(=O)O)CC(O)C(NC(C)=O)C(C(O)C(O)CO)O4)c(=O)c3=O)c(=O)c2=O)(C(=O)O)OC1C(O)C(O)CO` (centres unmarked) [ME0322], in assay [4] (infection of HCE cells by HAdV-37, earlier estimate, read-out: half maximal inhibitory concentration, previously estimated), the IC50 is 0.38 µM. Also, the “inhibiting infection of HCE cells by HAdV-37, compared with HSA-conjugate” value in assay [4] (reported in the art (background)) was “far more potent than the HSA-conjugate”. Moreover, the “binding mode with HAdV-37 fiber knob” value in assay [3] is on record as “one-to-one binding mode”. The Kd in assay [3] (read-out: binding affinity (Kd) for immobilized HAdV-37 fiber knobs, BIAcore T100, HBS-EP+ pH 7.4) was found to be 126 µM. Also, in assay [5] (assay not specified), the “potency compared with natural sialic acid monosaccharide” value is listed as “four orders of magnitude more potent than the natural sialic acid monosaccharide”. For the same compound, in assay [5], the “preventing binding of the virus, compared with 17-valent sialic acid-HSA conjugate” value is “as effective as 17-valent sialic acid-HSA conjugate”.
